The target of assay [1] is Protein cereblon/Peptidyl-prolyl cis-trans isomerase FKBP1A (Homo sapiens, UniProt P62942+Q96SW2). As to the kind of experiment: Protac activity at CRBN/FKBP12 in human Jurkat cells. The class given is cell-based.
The target in the next assay is Protein cereblon-NS3 (Hepacivirus hominis, UniProt A3EZJ3+Q96SW2). The experiment in a line: Protac activity at CRBN/NS3 in human Huh7.5 cells. In kind it is cell-based.

As to `COC1C(=O)[C@H](C)C[C@H](C)/C=C/C=C/C=C(\C)[C@@H](OC)C[C@@H]2CC[C@@H](C)[C@@](O)(O2)C(=O)C(=O)N2CCCC[C@H]2C(=O)O[C@H]([C@H](C)C[C@@H]2CC[C@@H](OCCOCc3cn(CCOCCOCCNc4cccc5c4C(=O)N(C4CCC(=O)NC4=O)C5=O)nn3)[C@H](OC)C2)CC(=O)[C@H](C)/C=C(\C)[C@H]1O` (some centres not stated), in assay [1], the DC50 was determined as 0.3 nM.

Consider `CCC[C@H](NC(=O)[C@@H]1[C@H]2CCC[C@H]2CN1C(=O)[C@@H](NC(=O)C(NC(=O)c1cnc(C(=O)NCCOCCOCCOc2cc3c4c(cccc4c2)C(=O)N(C2CCC(=O)NC2=O)C3=O)cn1)C1CCCCC1)C(C)(C)C)C(=O)C(=O)NC1CC1` (some centres not stated), for which the half-maximal inhibitory concentration (IC50) at Protein cereblon-NS3 worked out at 748 nM.

(Values after ChEMBL document CHEMBL5241095, “Developments of CRBN-based PROTACs as potential therapeutic agents” (Eur J Med Chem, 2021).)
